Key:
Leveillula taurica = experiment: control of powdery mildew in peppers grown in greenhouses; format: in vivo; conditions: doses of 1000 and 2000 ppm; peppers in greenhouse; reference Ciproconazol/Triadimenol
From the text: Some of these tests were especially significant, such as the result against powdery mildew in peppers grown in greenhouses in Almeria. The relevance of the data obtained is based on the scarcity of effective and non-synthetic systems that control this disease (caused by Leveillula taurica).
In the case of this test, spray guns were used, via the greenhouse irrigation system, to apply solutions of 1000 ppm and 2000 ppm of PTS and PTSO, with a nutrient broth volume of 20, 30, 40 l/parcel, depending on the application. These solutions were distributed in parcels of 4 rows, located in the zone of the greenhouse with a greater incidence of powdery mildew, while a reference product was applied in the rest of the warehouse: Ciproconazol (Caddy 10 WG at 10 gr/100 l) for the first and second application, Triadimenol (Bayfidan 25 EC at 25 ml/100 l) for the third application and Ciproconazol/Triadimenol for the final application.

[1] = test system: Ralstonia solanacearum Strain GM1000; format: cell-based; conditions: in vitro tests
Penicillium digitatum = experiment: post-harvest rotting of inoculated oranges (Navelina), immersion treatment; format: in vivo
Protocol: (§1) This example considers the effectiveness of the active natural principles PTS and PTSO in two different doses for the control of post-harvest rotting of oranges ([…] variety), caused by controlled artificial inoculation with the fungi Penicillium digitatum, Penicillium expansum, Phytophthora citrophthora and Geotrichum candidum, the principal pathogens of this fruit. The inoculation of the oranges was carried out with suspensions of spores of the different wild fungal strains selected, according to the methodology described below. The first step was the isolation and identification of the fungal strains used in the study. The strains of filamentous fungi used in these tests (Penicillium digitatum, Penicillium italicum and Phytophthora citrophthora) were isolated from oranges affected by rot. In these isolation processes, it was not possible to detect any strain belonging to Geotrichum candidum, as a result of which it was necessary to obtain the latter substance from the Spanish Collection of Standard Cultures, where it is identified by reference CECT 1102. […] To promote the implantation of the inoculum of Geotrichum candidum, 200 ppm of cyclohexamide was added to the inoculum prior to its inoculation. […] The assessment of the effectiveness of PTS and PTSO comprised counting of the number of fruits affected by rot in the inoculated zone, to determine the percentage of fruit affected for each treatment and fungus inoculated, and expressing this effectiveness as a percentage of reduction of the affected fruit.

Penicillium italicum = experiment: as above; format: in vivo
Protocol: as §1

post-harvest rot = post-harvest rot of oranges originating directly from the field (not inoculated); format: in vivo; conditions: for % of fruit affected: oranges refrigerated for 28 days at 5° C., 200 fruits not inoculated; for reduction of the quantity of fruit affected compared to the untreated fruit: specified doses, end of the refrigeration period (28 days at 5° C.)
Protocol: Once the oranges had been artificially contaminated, the treatments were conducted by immersing the oranges in solutions of PTS and PTSO prepared at doses of 1600 and 2500 ppm, and were stored at 20° C.
The assessment of the effectiveness of PTS and PTSO comprised counting of the number of fruits affected by rot in the inoculated zone, to determine the percentage of fruit affected for each treatment and fungus inoculated, and expressing this effectiveness as a percentage of reduction of the affected fruit.
On the basis of the results obtained by the application of PTS and PTSO to oranges of the Navelina variety originating directly from the field, both products, applied in the specified doses, are effective in the control of post-harvest rot. Both PTS and PTSO in turn reduce by 50% the quantity of fruit affected at the end of the refrigeration period (28 days at a temperature of 5° C.) compared to the untreated fruit, as a result of which they are an effective alternative to the synthetic treatments conventionally used.

[2] = test system: Fungi mixture (P. expansum, P. italicum, P. digitatum and A. Alternata); experiment: disinfection of artificially contaminated containers by drencher; conditions: drencher 30 seconds
Protocol: (§2) A test of the disinfection of containers (fruit boxes and crates) was conducted in which a level of artificial contamination was created by means of controlled inoculation, with the objective of determining optimum doses of application to achieve a satisfactory disinfection. First the containers (made of wood and plastic) were disinfected with sodium hypochlorite, and they were then artificially contaminated via controlled inoculations with different fungi characteristic of the fruit and vegetable processing sector. For this purpose, isolated wild strains were used which, after sporulation, were collected to create a suspension of mixed spores of various fungi (Penicillium expansum, Penicillium italicum, Penicillium digitarum and Alternario alternata) and, separately in simultaneous tests (as a result of its higher rate of growth and its invasive character), a suspension of Rhizopus stolonifer. […] After this fogging, the containers were allowed to dry. The containers were then sampled to determine the level of initial contamination achieved (by means of contact plates containing Rose Bengal agar). The containers were then treated in a pilot line […]. The hold time of the containers under the showers was 30 seconds, and the test doses were 750 ppm and 1050 ppm for PTS and 2000 ppm and 5000 ppm in the case of PTSO. After exiting the showers, the treated containers were allowed to dry, and were again sampled using contact plates with Rose Bengal agar to determine the final level of contamination. The sampling unit was 3 containers and 3 plates per repetition.

R. stolonifer = experiment: as above; set-up: species or system Rhizopus stolonifer; conditions: drencher 30 seconds
Protocol: as §2

[3] = test system: Fungi mixture (P. expansum, P. italicum, P. digitatum and A. Alternata); experiment: disinfection of containers stored inside the rooms by fogging
fungal population = experiment: disinfection by drencher of naturally contaminated containers of a citrus fruit processing plant
[4] = 1600 ppm, 5 days of treatment at 20° C., title: treated with PTSO
[5] = 1600 ppm, 7 days of treatment at 20° C., title: treated with PTSO
[6] = 2500 ppm, 5 days of treatment at 20° C., title: treated with PTSO
[7] = 2500 ppm, 7 days of treatment at 20° C., title: treated with PTSO
[8] = 1600 ppm, 4 days at 20° C., title: treated with PTSO
[9] = 2500 ppm, 4 days at 20° C., title: treated with PTSO

Structure (SMILES): CCCSS(=O)(=O)CCC [PTSO, Propyl Propyl Thiosulfonate]
- control of powdery mildew, as % of the effectiveness of the reference product (Leveillula taurica): slightly lower
- effectiveness of the application (in words) [1]: highly effective
- % Reduction (Penicillium digitatum; [4]): 72%
- % Reduction (Penicillium digitatum; [5]): 40%
- % Reduction (Penicillium digitatum; [6]): 85%
- % Reduction (Penicillium digitatum; [7]): 57%
- % Reduction (Penicillium italicum; [8]): 80%
- % Reduction (Penicillium italicum; [9]): 85%
- % of fruit affected (post-harvest rot; 2500 ppm): 15%
- reduction of the quantity of fruit affected compared to the untreated fruit (post-harvest rot): 50%
- Reduction of the population (%) ([2]; 2000 ppm, Plastic container): 93%
- Reduction of the population (%) ([2]; 2000 ppm, Wood container): 98%
- Reduction of the population (%) ([2]; 5000 ppm, Plastic container): 93%
- Reduction of the population (%) ([2]; 5000 ppm, Wood container): 99%
- Reduction of the population (%) (R. stolonifer; 2000 ppm, Plastic container): 100%
- Reduction of the population (%) (R. stolonifer; 2000 ppm, Wood container): 96%
- Reduction of the population (%) (R. stolonifer; 5000 ppm, Plastic container): 100%
- Reduction of the population (%) (R. stolonifer; 5000 ppm, Wood container): 98%
- Reduction of the population (%) ([3]; 2000 ppm, Plastic container): 94%
- Reduction of the population (%) ([3]; 2000 ppm, Wood container): 67%
- Reduction of the population (%) ([3]; 5000 ppm, Plastic container): 92%
- Reduction of the population (%) ([3]; 5000 ppm, Wood container): 70%
- Reduction of the fungal population (%) (fungal population; PTSO 2000 ppm, Bottom of the pallet, Beginning of bath): 93%
- Reduction of the fungal population (%) (fungal population; PTSO 2000 ppm, Bottom of the pallet, End of bath): 96%
- Reduction of the fungal population (%) (fungal population; PTSO 2000 ppm, Side of the pallet, Beginning of bath): 100%
- Reduction of the fungal population (%) (fungal population; PTSO 2000 ppm, Side of the pallet, End of bath): 87%

Structure (SMILES): CCCS[S+]([O-])CCC (stereo not drawn) [PTS, Propyl Propyl Thiosulfinate]
- control of powdery mildew, as % of the effectiveness of the reference product (Leveillula taurica): 92%
- effectiveness of the application (in words) [1]: highly effective
- % Reduction (Penicillium digitatum; [4]): 72%
- % of fruit affected (Penicillium digitatum; [4]): 28%
- % Reduction (Penicillium digitatum; [5]): 40%
- % of fruit affected (Penicillium digitatum; [5]): 60%
- % Reduction (Penicillium digitatum; 1600 ppm, 14 days at 20° C.): 0%
- % of fruit affected (Penicillium digitatum; 1600 ppm, 14 days at 20° C.): 100%
- % Reduction (Penicillium digitatum; 1666 ppm, 7 days at 20° C.): 23%
- % of fruit affected (Penicillium digitatum; 1666 ppm, 7 days at 20° C.): 77%
- % Reduction (Penicillium digitatum; [6]): 85%
- % of fruit affected (Penicillium digitatum; [6]): 15%
- % Reduction (Penicillium digitatum; 2500 ppm, 7 days at 20° C.): 53%
- % of fruit affected (Penicillium digitatum; 2500 ppm, 7 days at 20° C.): 47%
- % Reduction (Penicillium digitatum; [7]): 57%
- % of fruit affected (Penicillium digitatum; [7]): 43%
- % of fruit affected (Penicillium digitatum; 2500 ppm, 14 days at 20° C.): 36%
- % Reduction (Penicillium italicum; [8]): 80%
- % of fruit affected (Penicillium italicum; [8]): 20%
- % Reduction (Penicillium italicum; 1600 ppm, 14 days at 20° C.): 72%
- % of fruit affected (Penicillium italicum; 1600 ppm, 14 days at 20° C.): 28%
- % of fruit affected (Penicillium italicum; 1666 ppm, 7 days at 20° C.): 0%
- % Reduction (Penicillium italicum; [9]): 85%
- % of fruit affected (Penicillium italicum; [9]): 15%
- % Reduction (Penicillium italicum; 2500 ppm, 7 days at 20° C.): 100%
- % of fruit affected (Penicillium italicum; 2500 ppm, 7 days at 20° C.): 0%
- % Reduction (Penicillium italicum; 2500 ppm, 14 days at 20° C.): 85%
- % of fruit affected (Penicillium italicum; 2500 ppm, 14 days at 20° C.): 15%
- % of fruit affected (post-harvest rot; 1666 ppm): 10%
- reduction of the quantity of fruit affected compared to the untreated fruit (post-harvest rot): 50%
- Reduction of the population (%) ([2]; 750 ppm, Plastic container): 81%
- Reduction of the population (%) ([2]; 750 ppm, Wood container): 85%
- Reduction of the population (%) ([2]; 1050 ppm, Plastic container): 87%
- Reduction of the population (%) ([2]; 1050 ppm, Wood container): 85%
- Reduction of the population (%) (R. stolonifer; 750 ppm, Plastic container): 100%
- Reduction of the population (%) (R. stolonifer; 750 ppm, Wood container): 94%
- Reduction of the population (%) (R. stolonifer; 1050 ppm, Plastic container): 99%
- Reduction of the population (%) (R. stolonifer; 1050 ppm, Wood container): 100%
- Reduction of the population (%) ([3]; 750 ppm, Plastic container): 97%
- Reduction of the population (%) ([3]; 750 ppm, Wood container): 97%
- Reduction of the population (%) ([3]; 1050 ppm, Plastic container): 98%
- Reduction of the population (%) ([3]; 1050 ppm, Wood container): 97%
- Reduction of the fungal population (%) (fungal population; PTS 750 mm, Bottom of the pallet, Beginning of bath): 87%
- Reduction of the fungal population (%) (fungal population; PTS 750 mm, Bottom of the pallet, End of bath): 79%
- Reduction of the fungal population (%) (fungal population; PTS 750 mm, Side of the pallet, Beginning of bath): 97%
- Reduction of the fungal population (%) (fungal population; PTS 750 mm, Side of the pallet, End of bath): 100%
